Data reported in patent US20130143929A1, “FUNGICIDAL IMIDAZOLES” (EI DU PONT DE NEMOURS AND COMPANY, priority 2010, published 2013).
Marks after values point to notes of the source that are not given here.

Tests used:
Assay type in all cases: in vivo
[1] = system: Puccinia recondite f. sp. tritici (the causal agent of wheat leaf rust); test: Test A: wheat leaf rust, preventive spray on wheat seedlings, visual disease rating; conditions: wheat leaf rust, preventive spray on wheat seedlings
Summary of the method: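 Wheat seedlings were sprayed to run-off with compound suspended in acetone/water containing 250 ppm Trem 014 (200 ppm ≈ 800 g/ha; some at 40 ppm). Puccinia recondite spores were inoculated the next day. Plants were held 24 h saturated at 20° C, then 7 days at 20° C, and disease control was rated visually on a 0–100 scale against controls.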

[2] = system: Septoria tritici (the causal agent of wheat leaf blotch); test: Test B: wheat leaf blotch, preventive spray on wheat seedlings, visual disease rating; conditions: wheat leaf blotch, preventive spray on wheat seedlings
Summary of the method: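 Wheat seedlings sprayed to run-off with compound suspension (acetone/water with 250 ppm Trem 014; 200 ppm ≈ 800 g/ha, some at 40 ppm), inoculated next day with Septoria tritici spores. 48 h saturated humidity at 24 °C, then 19 days at 20 °C; visual rating, 100 = full control.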

[3] = system: Botrytis cinerea (the causal agent of tomato Botrytis); test: Test C: tomato Botrytis, preventive spray on tomato seedlings, visual disease rating; conditions: tomato Botrytis, preventive spray on tomato seedlings
Summary of the method: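 Test suspension (acetone/water with 250 ppm Trem 014; 200 ppm equivalent to 800 g/ha) sprayed to run-off on tomato seedlings; B. cinerea spores inoculated next day. After 48 h saturated humidity at 20° C then 3 days at 24° C, disease rated visually as % control relative to untreated controls (0–100).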

[4] = system: Blumeria graminis f. sp. tritici (also known as Erysiphe graminis f. sp. tritici, the causal agent of wheat powdery mildew); test: Test D: wheat powdery mildew, preventive spray on wheat seedlings, visual disease rating; conditions: wheat powdery mildew, preventive spray on wheat seedlings
Summary of the method: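 Compound suspended in acetone/water (50/50) with 250 ppm Trem 014 and sprayed to run-off on wheat seedlings (200 ppm ≈ 800 g/ha), then inoculated next day with spore dust. Disease rated visually after 8 days at 20 °C as % control relative to untreated plants (0-100).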

[5] = asterisk: 40 ppm test suspension
[6] = no asterisk (standard test suspension concentration, not 40 ppm)

SMILES	Test A rating (100 = 100% disease control, 0 = no disease control relative to the controls) [1, 5]	Test B rating (100 = 100% disease control, 0 = no disease control relative to the controls) [2, 5]	Test C rating (100 = 100% disease control, 0 = no disease control relative to the controls) [3, 5]	Test D rating (100 = 100% disease control, 0 = no disease control relative to the controls) [4, 5]	Test D rating (100 = 100% disease control, 0 = no disease control relative to the controls) [4, 6] [%]	Test A rating (100 = 100% disease control, 0 = no disease control relative to the controls) [1, 6] [%]	Test B rating (100 = 100% disease control, 0 = no disease control relative to the controls) [2, 6] [%]	Test C rating (100 = 100% disease control, 0 = no disease control relative to the controls) [3, 6] [%]
Cc1cc(F)ccc1C(O)c1c(Cl)nc(C)n1-c1c(F)cc(Cl)cc1F (stereo not drawn) [compound 111]	98* %	100* %	0* %	0* %	–	–	–	–
Cc1ncc(C(O)c2ccc(Cl)cc2Cl)n1-c1c(F)cc(Cl)cc1F (stereo not drawn) [compound 112]	74* %	100* %	0* %	0* %	–	–	–	–
Cc1nc(Br)c(C(O)c2ccc(Cl)cc2Cl)n1-c1c(F)cc(Cl)cc1F (stereo not drawn) [compound 113]	95* %	100* %	0* %	0* %	–	–	–	–
Cc1nc(Cl)c(C(O)c2ccc(Cl)cc2Cl)n1-c1c(F)cc(Cl)cc1F (stereo not drawn) [compound 114]	99* %	100* %	0* %	0* %	–	–	–	–
Cc1ncc(C(O)c2ccc(F)cc2Cl)n1-c1c(F)cc(Cl)cc1F (stereo not drawn) [compound 115]	100* %	96* %	97* %	0* %	–	–	–	–
Cc1nc(Br)c(C(O)c2ccc(F)cc2Cl)n1-c1c(F)cc(Cl)cc1F (stereo not drawn) [compound 116]	99* %	100* %	0* %	0* %	–	–	–	–
Cc1nc(Cl)c(C(O)c2ccc(F)cc2Cl)n1-c1c(F)cc(Cl)cc1F (stereo not drawn) [compound 117]	99* %	100* %	0* %	0* %	–	–	–	–
OC(c1ccc(F)cc1F)c1c(Cl)ncn1-c1c(F)cc(F)cc1Cl (stereo not drawn) [compound 118]	100* %	100* %	91* %	–	48	–	–	–
OC(c1ccc(F)cc1F)c1c(Br)ncn1-c1c(F)cc(Cl)cc1F (stereo not drawn) [compound 119]	98* %	100* %	97* %	0* %	–	–	–	–
OC(c1ccc(F)cc1F)c1c(Cl)ncn1-c1c(F)cc(Cl)cc1F (stereo not drawn) [compound 120]	98* %	100* %	99* %	0* %	–	–	–	–
OC(c1ccc(F)cc1F)c1c(Cl)nc(Br)n1-c1c(F)cc(F)cc1Cl (stereo not drawn) [compound 121]	100* %	100* %	100* %	98* %	–	–	–	–
Cc1ncc(C(O)c2ccc(F)cc2F)n1-c1c(F)cc(Cl)cc1F (stereo not drawn) [compound 122]	98* %	100* %	0* %	0* %	–	–	–	–
OC(c1ccc(F)cc1F)c1c(Br)nc(Br)n1-c1c(F)cc(Cl)cc1F (stereo not drawn) [compound 123]	98* %	100* %	95* %	0* %	–	–	–	–
OC(c1ccc(F)cc1F)c1c(Br)nc(Cl)n1-c1c(F)cc(Cl)cc1F (stereo not drawn) [compound 124]	100* %	100* %	100* %	0* %	–	–	–	–
OC(c1ccc(F)cc1F)c1c(Cl)nc(Br)n1-c1c(F)cc(Cl)cc1F (stereo not drawn) [compound 125]	100* %	100* %	100* %	79* %	–	–	–	–
Cc1nc(Br)c(C(O)c2ccc(F)cc2F)n1-c1c(F)cc(Cl)cc1F (stereo not drawn) [compound 126]	96* %	100* %	0* %	0* %	–	–	–	–
Cc1nc(Cl)c(C(O)c2ccc(F)cc2F)n1-c1c(F)cc(Cl)cc1F (stereo not drawn) [compound 127]	100* %	100* %	73* %	0* %	–	–	–	–
Cc1nc(Cl)c(C(O)c2c(F)cc(F)cc2F)n1-c1ccc(F)cc1Cl (stereo not drawn) [compound 128]	–	–	–	–	0	100	100	99
Cc1nc(Cl)c(C(O)c2ccc(F)cc2Cl)n1-c1ccc(F)cc1Cl (stereo not drawn) [compound 129]	–	–	–	–	0	100	100	98
Cc1nc(Cl)c(C(O)c2ccc(F)cc2Cl)n1-c1ccc(F)cc1Br (stereo not drawn) [compound 130]	–	–	87* %	–	0	99	100	–
Cc1nc(Cl)c(C(O)c2ccc(F)cc2F)n1-c1c(F)cccc1F (stereo not drawn) [compound 131]	100* %	100* %	99* %	99* %	–	–	–	–
